According to patent US12624049B2, “Salt and crystal forms of 4-amino-5-(6-(4-methylpiperazin-1-yl)-1H-benzo[d]imidazol-z-yl)thieno[2.3-b]pyridin-6(7H)-one” (UNIVERSITY HEALTH NETWORK, priority 2020, dated 2026):
Converted amounts (≈) assume the structure as drawn. Where a name gives a salt, the structure may show the parent alone. Read-outs that look alike come from different tables or passages of the source.

Experiments:
[1] = Pharmacokinetics after single oral dose (powder in capsule), Compound (I) plasma level by LC/MS; assay type: in vivo, male Beagle dogs
Protocol: A single dose as powder in capsule of Compound (I), 1:1 Compound (I) mono HCl salt (Batch 3), di-HCl salt of Compound (I), and 1:1 Compound (I) tartrate salt was administrated to male Beagle dogs at either 125 mg/kg or 150 mg/kg. Blood samples were collected for up to 24 h and the plasma was analyzed for Compound (I) plasma level by LC/MS.

[2] = Solubility in water, SGF and FaSSIF (supernatant by HPLC/UPLC); assay type: physicochemical; conditions: for Solubility (mg/mL) FaSSIF: fasted state simulated intestinal fluid buffer, target 2 mg/mL; for Solubility (mg/mL) FaSSIF / Solubility (mg/mL) SGF: 24 h at 37° C.; for Solubility (mg/mL) SGF: simulated gastric fluid buffer, target 10 mg/mL; for Solubility (mg/mL) water: stirred 1 h at ambient temperature, analyzed at 24 h
Protocol: The compounds to be tested were prepared in 3 different media as described below.
Samples prepared in water: approximately 30-40 mg of test material was weighted into a glass vial. 1 mL of water was added. The sample was stirred for 1 h at ambient temperature and the sample was analyzed by HPLC at 24 h.
Samples prepared in simulated gastric fluid (SGF) buffer: approximately 40 mg of test material was weighted into a glass vial. 4 mL of SGF buffer was added to make a target concentration at 10 mg/mL. The sample was stirred for 24 h at 37° C. and the sample was analyzed by HPLC at 24 h.
Samples prepared in fasted state simulated intestinal fluid (FaSSIF) buffer: approximately 8 mg of test material was weighted into a glass vial. 4 mL of FassiF buffer was added to make a target concentration at 2 mg/mL. The sample was stirred for 24 h at 37° C. and the sample was analyzed by HPLC at 24 h.
The samples were stirred for 1 h at ambient temperature or 24 h at 37° C. The samples were then centrifuged and the resulting supernatants were analyzed by HPLC to determine the solubility.

[3] = Hygroscopicity measurement by DVS apparatus; assay type: physicochemical; conditions: for Change in Mass (%) Water uptake at 30% RH / Change in Mass (%) Water uptake at 60% RH / Change in Mass (%) Water uptake at 90% RH: DVS, 25° C.
Protocol: In another embodiment, 1:1 Compound (I) tartrate salt is characterized by a hygroscopicity measurement, wherein water uptake is less than 4% (e.g. 2% or 1%) of the mass of the tartrate salt at 90% relative humidity (RH); or less than 2% (e.g. 1% or 0.5%) of the mass of the tartrate salt at 60% RH; or less than 1% (e.g. 0.5% or 0.1%) of the mass of the tartrate salt at 30% RH. The hygroscopicity in different relative humidity (RH) is measured under following conditions: • i) drying between 0.5 and 1.5 mg of the tartrate salt under a nitrogen atmosphere at 0% relative humidity for 2 hours; • ii) increasing or decreasing the relative humidity in steps of 10% from 0% to 90% then to 0%; • iii) maintaining the relative humidity at each step until the mass change compared to the mass of the original tartrate salt per minute is less than 0.01 (%/min), provided that minimum and maximum duration time at each step is 10 minutes and 180 minutes, respectively; and • iv) measuring the mass of the tartrate salt at the desired relative humidity (e.g., 90%, 60%, or 30%) and wherein steps i)-iv) are carried out at 25° C.
The compound to be tested is submitted to hygroscopicity test by means of a DVS apparatus. The testing parameters are in Table 5.

[4] = Long term stability under 3 storage conditions (appearance, HPLC purity/impurities, XRPD form); assay type: physicochemical; conditions: for Purity / Total amount of impurities: HPLC; for Crystalline form: XRPD
Protocol: A representative method used for stability evaluation is summarized Table 2.
Purity and stability of 4-amino-5-(6-(4-methylpiperazin-1-yl)-1H-benzo[d]imidazol-2-yl)thieno[2,3-b]pyridin-6(7H)-one (I) tartrate have been tested. Stability samples were prepared and stored under 3 different storage conditions: 2-8° C./ambient RH, 25° C./60% RH, and 40° C./75% RH. Stability samples were removed from their storage conditions within each pull window, and the samples were allowed to equilibrate to ambient conditions prior to analysis. The appearance was evaluated by visual inspection, purity and total amount of impurities were analyzed by HPLC and crystalline form was characterized by XRPD.

For CN1CCN(c2ccc3nc(-c4c(N)c5ccsc5[nH]c4=O)[nH]c3c2)CC1 [Free base, 4-amino-5-(6-(4-methylpiperazin-1-yl)-1H-benzo[d]imidazol-2-yl)thieno[2,3-b]pyridin-6(7H)-one], the “AUC0−tlast” value ([1]; beagle dogs, oral dose 125 mg/kg, powder in capsule, plasma, up to 24 h, 125 mg/kg) was 2264 ng·h/mL, the Cmax ([1]; male, beagle, dog, plasma, po, 125 mg/kg, beagle dogs, oral dose 125 mg/kg, powder in capsule, plasma, read-out: Cmax) was 301 ng/mL and the “Solubility (mg/mL) FaSSIF” value [2] was 0.09 mg/mL (≈ 237 µM). The “Solubility (mg/mL) SGF” value [2] was 0.5 mg/mL (≈ 1310 µM), the “Solubility (mg/mL) water” value [2] was 0.3 mg/mL (≈ 788 µM) and the “Change in Mass (%) Water uptake at 30% RH” value (“Change in Mass … at 30% RH” below) [3] was 0.5%. For the same molecule, the “Change in Mass (%) Water uptake at 60% RH” value (“Change in Mass … at 60% RH” below) [3] was 0.9% and the “Change in Mass (%) Water uptake at 90% RH” value (“Change in Mass … at 90% RH” below) [3] was 26%.
For CN1CCN(c2ccc3nc(-c4c(N)c5ccsc5[nH]c4=O)[nH]c3c2)CC1 [Mono HCl salt (Batch 3)], the “AUC0−tlast” value ([1]; beagle dogs, oral dose 125 mg/kg, powder in capsule, plasma, up to 24 h, listed as Mono HCl (Batch 3), 125 mg/kg) was 4354 ng·h/mL, the Cmax ([1]; beagle dogs, oral dose 125 mg/kg, powder in capsule, plasma, listed as Mono HCl (Batch 3), 125 mg/kg) was 547 ng/mL and the “Solubility (mg/mL) FaSSIF” value ([2]; Batch 3) was 0.22 mg/mL. For the same molecule, the “Solubility (mg/mL) SGF” value ([2]; Batch 3) was 9.0 mg/mL, the “Solubility (mg/mL) water” value ([2]; Batch 3) was 10.2 mg/mL and the “Change in Mass … at 30% RH” value [3] was 3.7%. The “Change in Mass … at 60% RH” value [3] was 6.1% and the “Change in Mass … at 90% RH” value [3] was 38.3%.
With CN1CCN(c2ccc3[nH]c(-c4c(N)c5ccsc5[nH]c4=O)nc3c2)CC1 [Di-HCl salt, 4-amino-5-(6-(4-methylpiperazin-1-yl)-1H-benzo[d]imidazol-2-yl)thieno[2,3-b]pydidin-6(7H)-one (I) Di-Hydrochloride] the “AUC0−tlast” value ([1]; beagle dogs, oral dose 125 mg/kg, powder in capsule, plasma, up to 24 h, Di-Hydrochloride, 125 mg/kg) was 6862 ng·h/mL, the Cmax ([1]; beagle dogs, oral dose 125 mg/kg, powder in capsule, plasma, Di-Hydrochloride, 125 mg/kg) was 530 ng/mL and the “Solubility (mg/mL) water” value ([2]; Di-Hydrochloride) was 3.3 mg/mL.
With CN1CCN(c2ccc3nc(-c4c(N)c5ccsc5[nH]c4=O)[nH]c3c2)CC1 [Tartrate salt, 4-amino-5-(6-(4-methylpiperazin-1-yl)-1H-benzo[d]imidazol-2-yl)thieno[2,3-b]pyridin-6(7H)-one (I) tartrate] the “Plasma concentrations in dogs following oral administration (in words)” value ([1]; compared to the free base and the mono HCl salt) was “improved plasma concentrations”, the AUC(0-t) ([1]; male, beagle, dog, plasma, po, 150 mg/kg, beagle dogs, oral dose 150 mg/kg, powder in capsule, plasma, up to 24 h, read-out: AUC0−tlast) was 6550 ng·h/mL and the Cmax ([1]; male, beagle, dog, plasma, po, 150 mg/kg, beagle dogs, oral dose 150 mg/kg, powder in capsule, plasma, read-out: Cmax) was 514 ng/mL. The Purity ([4]; 5° C./ambient RH, 1 month) was 100%, the “Total amount of impurities” value ([4]; 5° C./ambient RH, 1 month) was 0.03% and the Purity ([4]; 5° C./ambient RH, 3 month) was 100%. For the same molecule, the “Total amount of impurities” value ([4]; 5° C./ambient RH, 3 month) was 0.0%, the Purity ([4]; 5° C./ambient RH, 6 month) was 100% and the “Total amount of impurities” value ([4]; 5° C./ambient RH, 6 month) was 0.03%. The Purity ([4]; 5° C./ambient RH, 12 month) was 100%, the “Total amount of impurities” value ([4]; 5° C./ambient RH, 12 month) was 0.03% and the Purity ([4]; 5° C./ambient RH, Initial) was 100%. For the same molecule, the “Total amount of impurities” value ([4]; 5° C./ambient RH, Initial) was 0.03%, the Crystalline form ([4]; 5° C./ambient RH, Initial) was “Yes” and the Purity ([4]; 25° C./60% RH, 1 month) was 100%. For the same molecule, the “Total amount of impurities” value ([4]; 25° C./60% RH, 1 month) was 0.02%, the Purity ([4]; 25° C./60% RH, 3 month) was 100% and the “Total amount of impurities” value ([4]; 25° C./60% RH, 3 month) was 0.03%. The Purity ([4]; 25° C./60% RH, 6 month) was 100%, the “Total amount of impurities” value ([4]; 25° C./60% RH, 6 month) was 0.03% and the Purity ([4]; 25° C./60% RH, 12 month) was 100%. For the same molecule, the “Total amount of impurities” value ([4]; 25° C./60% RH, 12 month) was 0.03%, the Purity ([4]; 25° C./60% RH, Initial) was 100% and the “Total amount of impurities” value ([4]; 25° C./60% RH, Initial) was 0.03%. For the same molecule, the Crystalline form ([4]; 25° C./60% RH, Initial) was “Yes”, the Purity ([4]; 40° C./75% RH, 1 month) was 100% and the “Total amount of impurities” value ([4]; 40° C./75% RH, 1 month) was 0.02%. For the same molecule, the Purity ([4]; 40° C./75% RH, 3 month) was 100%, the “Total amount of impurities” value ([4]; 40° C./75% RH, 3 month) was 0.03% and the Purity ([4]; 40° C./75% RH, 6 month) was 100%. For the same molecule, the “Total amount of impurities” value ([4]; 40° C./75% RH, 6 month) was 0.03%, the Purity ([4]; 40° C./75% RH, 12 month) was 100% and the “Total amount of impurities” value ([4]; 40° C./75% RH, 12 month) was 0.03%. The Purity ([4]; 40° C./75% RH, Initial) was 100%, the “Total amount of impurities” value ([4]; 40° C./75% RH, Initial) was 0.03% and the Crystalline form ([4]; 40° C./75% RH, Initial) was “Yes”. The “Shelf life (in words)” value ([4]; see Example 8) was “extended shelf life”, the “Solubility (mg/mL) FaSSIF” value [2] was 0.02 mg/mL and the “Solubility in water and in simulated gastric fluids (in words)” value ([2]; see Example 7 and Table 7) was “improved solubility”. For the same molecule, the “Solubility (mg/mL) SGF” value [2] was 9.0 mg/mL, the “Change in Mass … at 30% RH” value [3] was 0.06% and the “Change in Mass … at 60% RH” value [3] was 0.3%. For the same molecule, the “Change in Mass … at 90% RH” value [3] was 0.7% and the “Hygroscopicity (in words)” value ([3]; crystalline form, see Example 6) was “non-hygroscopic”.
